Data taken from patent US20100081631A1, “METHODS AND COMPOSITIONS FOR TREATING GASTROINTENSTIAL DISORDERS” (priority 2006, published 2010).

Experiments:
[1] = tested on: IEC-18 cells; assay: Doxorubicin/celecoxib-induced apoptosis of IEC-18 cells by flow cytometry; assay type: cell-based, rat; conditions: 48 hours
Procedure: IEC-18 cells were cultured in high glucose DMEM containing 10% fetal bovine serum (FBS), 1% penicillin, 1% streptomycin, and 50 unit insulin essentially as indicated in Example 101 for 48 hours in the presence of the 0.05 μg/ml chemotherapy agent doxorubicin to induce apoptosis. In the presence of 10 μM celecoxib (which inhibits endogenous prostaglandin PGE2 expression), apoptosis of doxorubicin-treated IEC-18 cells proceeds within 48 hours at such very low concentrations of doxorubicin. Finally, the cells collected by trypsin were subjected to flow cytometry analysis for identification of the percentage of cells in different stages of the cell cycle.
Cultured cells were prepared for flow cytometry by trypsinization and centrifugation. The cells were then washed with cold phosphate buffered saline solution (PBS), then fixed with cold 70% ethanol overnight. The cells were then again washed with PBS and stained with propidium iodide, a nucleic acid intercalating dye, in the presence of RNase for 30 minutes at room temperature. The cells were then sorted using the buffer provided by Becton-Dickenson, the maker of the flow cytometry equipment.
Additionally, using CellQuest® software (Becton-Dickenson) a quantification of the percent of apoptosis occurring in IEC-18 cells after 48 hours' incubation was performed. […]

[2] = tested on: C57BL/6 mice; assay: Acetic acid-induced gastric ulcer model in mice; assay type: in vivo
From the text: Gastric ulcers were produced in C57BL/6 mice by using 40% acetic acid as follows. Animals were anesthetized. The abdomen of each animal was surgically opened, and the stomach exposed. A 3 mm curette was placed onto the anterior surface of each stomach. A solution of 40% acetic acid was placed inside the curette. The curette prevents damage to surrounding tissue. The acetic acid treatment causes damage to blood vessels of the stomach, producing chemical death to the mucous layer.
On the third day following induction of ulceration, the animals were given various treatments by oral gavage. First, vehicle (4% DMSO-corn oil) or a low dose (3 mg/kg/day) of indomethacin in 4% DMSO-corn oil was used. This dose of indomethacin has been reported not to induce gross lesions on the stomach, although it can inhibit the production of endogenous prostglandin PGE2.
On day 7 blood was withdrawn for hematology analysis from sacrificed animals, and subjected to automated testing for standard hematological parameters. Ulcer areas (defined as the regions of the stomach not covered by stomach mucosal epithelial cells) were measured by dissection microscopy for macroscopic analysis; additionally, the widest section of each ulcer sample was measured and observed as the size index under microscopy. The stomachs were processed for pathological analysis by dissection and section through the widest part of the ulcer. Sections were stained using hematoxylin & eosin.
Mice were then treated with 10 nM Compound 7 or the vehicle under otherwise identical conditions. In this experiment the vehicle was 4% DMSO in corn oil in a volume of 0.1 ml. The mice were sacrificed and the stomachs examined on either the 7th day or the 11th day following ulceration. […] Under dissection microscopy, the areas of the ulcers in mice treated with Compound 7 were 60% and 32% of the control on days 7 and 11, respectively. […] (FIG. 4B).

[3] = tested on: PI3k/Akt pathway (Akt phosphorylation) in IEC-18 cells; assay: Akt phosphorylation Western blot in IEC-18 cell lysates; assay type: cell-based, rat; conditions: 24 hours; for Akt phosphorylation: 5 μM SC-560, 10 μM celecoxib or 10 μM indomethacin
Procedure: Rat intestinal epithelial cells (IEC-18 cells) are immortalized normal epithelial cells purchased from the American Type Culture Collection (ATCC). For these experiments, IEC-18 cells were cultured in high glucose Delbecco's Modified Eagle's Medium (DMEM) at 37° C. under 5% CO2 and incubated for 24 hours with either a) 5 μM of the COX-1 inhibitor SC-560 (purchased from Sigma-Aldrich, St. Louis, Mo.), 10 μM of the COX-2 inhibitor celecoxib, or 10 μM of the COX-½ inhibitor indomethacin. Drugs were provided in a 0.1% dimethylsulfoxide (DMSO) vehicle.
The PI3k/Akt pathway is monitored using the following general assay procedure. Following incubation cell lysates are collected with lysis buffer containing phosphatase and proteinase inhibitors. The supernanats are collected and protein concentrations are measured. Then SDS(sodium dodecyl sulfate) sample buffers are made to make sure final protein concentration is equal in each sample and boiled for minutes at 100° C. Then the samples are loaded on to a 4%-12% pre-made SDS-PAGE (polyacrylamide gel electrophoresis) and the gel is developed under electrophoresis. When the samples reach the bottom of the gel, the gel is removed from the electrophoresis equipment and transferred to a nitrocellulose membrane and the membrane blocked with milk. The membrane is incubated with a primary antibody selective for either a) total Akt or b) phosphrylated Akt overnight at 4° C. A secondary antibody having a conjugated horseradish peroxidase (HRP) moiety is used to bind the constant regions of the primary antibodies. The membrane is washed under conditions favoring selective antibody binding. Finally, the HRP is detected using a enzymatically initiated chemiluminescent substrate such as Super Signal® ELISA Pico Substrates, available from Thermo Fisher Scientific.

[4] = target: T1, human EP4 prostaglandin receptor (Homo sapiens, UniProt P35408); assay: FLIPR Ca++ flux test; assay type: cell-based; conditions: cells expressing human EP4, read-out: in vitro EC50 (concentration at 50% of maximal efficacy)
T1 construct: expressed in transfected cells; host or cells: HEK-EBNA cells
Procedure: HEK-293 (EBNA) cells, stably expressing one type or subtype of recombinant human prostaglandin receptors (prostaglandin receptors expressed: hDP/Gqs5; hEP1; hEP2/Ggs5; hEP3A/Gqi5; hEP4/Ggs5; hFP; hIP; hTP), are cultured in 100 mm culture dishes in high-glucose DMEM medium containing 10% fetal bovine serum, 2 mM 1-glutamine, 250 μg/ml geneticin (G418) and 200 μg/ml hygromycin B as selection markers, and 100 units/ml penicillin G, 100 μg/ml streptomycin and 0.25 μg/ml amphotericin B.
Transfectant cells are seeded at a density of 5×10^4 cells per well in Biocoat®. Poly-D-lysine-coated black-wall, clear-bottom 96-well plates (Becton-Dickinson) and allowed to attach overnight in an incubator at 37° C. Cells are then washed two times with HBSS-HEPES buffer (Hanks Balanced Salt Solution without bicarbonate and phenol red, 20 mM HEPES, pH 7.4) using a Denley Cellwash plate washer (Labsystems). […]
Cells are excited with an Argon laser at 488 nm, and emission measured through a 510-570 nm bandwidth emission filter (FLIPR.™., Molecular Devices, Sunnyvale, Calif.). […] The peak increase in fluorescence intensity is recorded for each well. […] The peak fluorescence change in each drug-containing well is then expressed relative to the controls. […]

[5] = tested on: C57BL/6 mice; assay: Acetic acid-induced gastric ulcer model in mice; assay type: in vivo; remark: listed apart in the source
[6] = target: T1, human EP4 prostaglandin receptor; assay: Activity test measuring changes in intracellular cAMP in HEK-EBNA cells; assay type: cell-based; conditions: HEK-EBNA cells expressing human EP4, read-out: in vitro EC50 (concentration at 50% of maximal efficacy)
Procedure: The dosage of the prostaglandin EP4 agonist component employed in accordance with the present invention varies over a relatively wide range and depends on factors well known in the medicinal arts including, but not limited to: the weight of the individual to whom the agonist component is administered, the general health status/condition of such individual, the disease/condition sought to be treated/prevented by such administration, the severity of such disease/condition in such individual, the potency of the specific EP4 receptor agonist component being administered, the sensitivity of such individual to the specific agonist component being administered, the mode of administration, the age of such individual, the sex of such individual, the pregnancy status of such individual, the other ongoing drug therapies being administered to such individual and the like factors. The compound (Z)-7-{(1R,4S,5R)-5-[(E)-5-(3-chloro-benzo[b]thiophene-2-yl)-3-hydroxy-pent-1-enyl]-4-hydroxy-3,3-dimethyl-2-oxo-cyclopentyl}-hept-5-enoic acid has an in vitro EC50 (concentration at 50% of maximal efficacy) of between 0.03 and 0.1 nM in both the FLIPR® Ca^++ flux test and in an alternate activity test measuring changes in the intracellular concentration of cAMP in HEK-EBNA cells expressing the human EP4 prostaglandin receptor.

[7] = indomethacin 3 mg/kg/day oral gavage, day 7, vs vehicle
[8] = 0.1 mg/kg/d Compound 7 + 3 mg/kg/d indomethacin vs control mice

T1 sequence (P35408 whole entry): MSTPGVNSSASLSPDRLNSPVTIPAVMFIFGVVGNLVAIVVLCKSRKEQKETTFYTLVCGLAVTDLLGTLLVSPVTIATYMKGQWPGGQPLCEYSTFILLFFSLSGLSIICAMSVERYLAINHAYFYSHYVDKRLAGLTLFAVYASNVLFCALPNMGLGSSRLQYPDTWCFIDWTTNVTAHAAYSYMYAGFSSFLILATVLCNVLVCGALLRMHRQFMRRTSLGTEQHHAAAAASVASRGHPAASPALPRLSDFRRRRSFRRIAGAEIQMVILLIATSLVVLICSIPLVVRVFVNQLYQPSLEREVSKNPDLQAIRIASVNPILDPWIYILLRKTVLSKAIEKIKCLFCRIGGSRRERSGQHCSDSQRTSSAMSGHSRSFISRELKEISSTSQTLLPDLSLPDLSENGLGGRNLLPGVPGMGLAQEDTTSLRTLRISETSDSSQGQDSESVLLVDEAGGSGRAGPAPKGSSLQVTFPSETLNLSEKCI

COc1cccc2c1C(=O)c1c(O)c3c(c(O)c1C2=O)C[C@@](O)(C(=O)CO)C[C@@H]3O[C@H]1C[C@H](N)[C@H](O)[C@H](C)O1 [doxorubicin, reference compound]
percent apoptosis ([1]; 0.05 μg/ml doxorubicin with 10 μM celecoxib): about 13%

COc1ccc2c(c1)c(CC(=O)O)c(C)n2C(=O)c1ccc(Cl)cc1 [indomethacin, reference compound]
spontaneous healing of gastric ulcers (gross and microscopic ulcer size) ([2]; indomethacin 3 mg/kg/day oral gavage from day 3, day 7, vs vehicle): delayed the spontaneous healing of gastric ulcers
blood loss at ulcer sites [2, 7]: exacerbate blood loss at ulcer sites
inflammation (lymphocytes in the blood) [2, 7]: exacerbated inflammation
Akt phosphorylation [3]: inhibited phosphorylation of Akt to a greater extent that did SC-560 or celecoxib

CC1(C)C(=O)[C@H](C/C=C\CCCC(=O)O)[C@@H](/C=C/C(O)CCc2sc3ccccc3c2Cl)[C@@H]1O (stereo partly drawn) [Compound 7, (Z)-7-{(1R,4S,5R)-5-[(E)-5-(3-chloro-benzo[b]thiophene-2-yl)-3-hydroxy-pent-1-enyl]-4-hydroxy-3,3-dimethyl-2-oxo-cyclopentyl}-hept-5-enoic acid]
EC50 [4]: 0.03 to 0.1 nM
ulcer sizes vs vehicle ([2]; 10 nM Compound 7, vehicle 4% DMSO in corn oil, day 7 or 11): significantly smaller ulcer sizes
areas of the ulcers under dissection microscopy ([2]; Compound 7, day 7): 60 % of the control
areas of the ulcers under dissection microscopy ([2]; Compound 7, day 11): 32 % of the control
inflammatory cell infiltrations and necrotic tissue in granulation tissue ([2]; Compound 7 vs control group): significantly less
gross and microscopic morphologies of the ulcer tissue ([2]; Compound 7 vs vehicle, day 7): stimulates healing of ulcer and facilitate the removal of necrosis tissue
hematocrit (HCT) [5, 8]: significantly greater
hemoglobin (HGB) [5, 8]: significantly greater
number of red blood cells (RBC) ([5]; 0.1 mg/kg/d Compound 7 + 3 mg/kg/d indomethacin vs control mice, n=20): significantly greater
blood loss (hematology) ([5]; 0.1 mg/kg/d Compound 7 + 3 mg/kg/d indomethacin vs indomethacin alone): significantly less blood loss
Akt phosphorylation on co-incubation with indomethacin ([3]; 10 nM Compound 7 + 10 μM indomethacin vs indomethacin alone): maintained Akt phosphorylation at higher levels
percent apoptosis ([1]; 10 nM Compound 7 added to 0.05 μg/ml doxorubicin + 10 μM celecoxib): approximately 5%
EC50 [6]: 0.03 to 0.1 nM

COc1ccc(-n2nc(C(F)(F)F)cc2-c2ccc(Cl)cc2)cc1 [SC-560]
Akt phosphorylation [3]: inhibited Akt phosphorylation
